In one data set the target is α1β1 Na+/K+ ATPase (Homo sapiens, UniProt P05023). Nature of the data set: Na+/K+ ATPase pump binding, α1β1 isoform (radioactive displacement assay). On the procedure:
(§1) α1/2/3-Na^+/K^+ ATPase pump binding data was assessed for compounds of Table 1.
(§2) Further, from the results, a strong correlation between cancer cell cytotoxicity and α1/3-Na^+/K^+ ATPase pump binding selectivity was observed (see: α-L-amiceto-mono-, di- and tri-saccharides; Scheme 1). In addition, it was observed that mono-saccharides have improved activity and α1/2/3-isoform selectivity. […] The Na^+/K^+ ATPase binding data also correlates with the cytotoxicity data, which can be seen in the binding data of compounds 1.5-1.7 to all three isomers (α1β1/α2β1/α3β1), which decreases proportionally the MTT data (Table 1).

A further data set addresses α2β1 Na+/K+ ATPase (Homo sapiens, UniProt P50993). Nature of the data set: Na+/K+ ATPase pump binding, α2β1 isoform (radioactive displacement assay). On the procedure:
as §1, §2

The next data set concerns the target α3β1 Na+/K+ ATPase (Homo sapiens, UniProt P13637). Nature of the data set: Na+/K+ ATPase pump binding, α3β1 isoform (radioactive displacement assay). The procedure: as §1, §2
For data set [1], the system named is NCI-H460 cells. Nature of the data set: cells. The data set is classed as cell-based, Human. The note with it: Homo sapiens. The procedure: (§3) Human non-small cell lung cancer cells (NCI-H460) were purchased from the American Type Culture Collection (Manassas, Va.). NCI-H460 cells were cultured in RPMI 1640 medium supplemented with 10% bovine fetal serum (FBS), 2 mM L-glutamine and 100-units/ml penicillin/streptomycin. All experiments with NCI-H460 cells were performed in medium enriched with 1% FBS serum, 2 mM L-glutamine and 100-units/ml penicillin/streptomycin. 1% FBS was used due to existing concerns about digitoxin binding to serum proteins.
Cells were seeded overnight in 96 well plates at a concentration of 1×10^4 cells/well, and then treated for 48 h with a log10 scale dilution series of the glycosylated CS compounds (e.g., digitoxin or D6-MA) dissolved in sterile filtered DMSO. Subsequently, 10 μl of 5 mg/ml MTT reagent was added to each well and then incubated for 4 h at 37° C. Isopropanol acidified with 0.04 N HCl was used to dissolve converted dye. Absorbance at 570 nm was measured using an Automated Microplate Reader ELx800 (BioTek, Winooski, Vt.). Each experiment was conducted 4 times with 4 replicate wells per concentration.
(§4) All results are presented as mean±standard deviation. For cell viability, ATPase activity and apoptosis assays, dose-response curves and concentrations that caused 50% effect (i.e. IC50) were calculated for the prepared compounds listed in Tables 1-3 in all the cell lines tested using non-linear regression analysis in GraphPad Prism 5.0 (San Diego, Calif.). Two-way analysis of variance (ANOVA) and unpaired two-tailed Student's t-test with α=0.05 were performed to compare the effect of compounds and administered dose on cell viability, apoptosis and quantified protein expression data. Post-hoc Tukey-Kramer HSD tests were conducted on significant ANOVA results. Results were considered significant when p≦0.05.

The test system of data set [2] is NCI-H460 cells. Nature of the data set: Apoptosis assay (Hoechst 33342). The note with it: Homo sapiens, read-out: Anticancer Apoptosis GI50. The format is cell-based. On the procedure: as §3
Cells were seeded overnight in 12 or 24 well plates at a concentration of 1×10^5 cell/ml and subsequently treated with different concentrations of the glycosylated CS compounds for 24 h. After treatment, cells were incubated with […] of Hoechst 33342 for 30 min and analyzed for apoptosis by scoring the percentage of cells having intensely condensed chromatin and/or fragmented nuclei using fluorescence microscopy (Leica Microsystems, Bannockburn, Ill.). Approximately 1,000 nuclei from ten random fields were analyzed for each sample. The apoptotic index was calculated as the percentage of cells with apoptotic nuclei over total number of cells.
as §4

For the next data set, the system named is HCMV. Description: Anti-CMV activity assay, inhibition of HCMV replication in infected HFFs. The data set is classed as cell-based, human Cytomegalovirus (HCMV). The following applies: for SI (selectivity index, CC50/EC50): CC50 noninfected HFFs / EC50 infected HFFs. The procedure: It has been observed that the infection of human foreskin fibroblasts (HFF) cells with HCMV causes an up regulation of the α3-isoform of the Na^+/K^+-Pump. Therefore the inhibition of HCMV replication by the compounds described herein was tested using procedure described by Cai, H. et al., in Med. Chem. Lett. 2014, 5, 395-399, which is incorporated by reference in its entirety. Generally, inhibition of Towne HCMV: pp28-luciferase activity was measured in cell lysates of HCMV-infected HFFs collected at 72 h post infection (hpi). Virus DNA yield in supernatants of HCMV-infected cells collected at 96 hpi was measured by real-time PCR. Plaque reduction assay performed at 8 days postinfection. Data represent mean values (±SD) of triplicate determinations from three independent experiments.
Inhibition of TB40 HCMV: HFFs were infected with HCMV-TB40 strain at MOI of 1 pfu/cell and treated with compounds listed in Tables 1-3 for 3 days.
(§5) The glycosylated cardiotonic steroid compounds were tested for their anti-cytomegalovirus (CMV) activity. Specifically, the compounds were tested for the ability to inhibit HCMV replication. For each compound, the anti-HCMV activity in infected HFFs was expressed as EC50, whereas cytotoxicity in noninfected HFFs was expressed as CC50. Selectivity index (SI), defined as CC50/EC50, was calculated for each compound.

A short description of data set [3]: Cytotoxicity in noninfected HFFs (MTT). The format is cell-based, human. The note with it: human. The procedure: as §5
A further data set has as its system noninfected HFFs. Nature of the data set: Cytotoxicity in noninfected HFFs (MTT). The data set is classed as cell-based, human. On the procedure: as §5
[4] abbreviates: NCI-H460, 48 h, read-out: Anticancer MTT IC50.
Setting [5] is: anti-HCMV activity in infected HFFs, read-out: EC50.

Like-named read-outs stand apart in the source and are kept apart here.

For orientation: IC50 means the concentration needed to halve the response being measured. As usually defined, the GI50 is the concentration that inhibits growth by half. For orientation: EC50 means the concentration that produces a half-maximal response. The term CC50 denotes the concentration that lowers cell viability or growth by half. For the compound `CC1O[C@@H](O[C@H]2CCC3(C)C(CC[C@@H]4C3CCC3(C)[C@@H](C5=CC(=O)OC5)CC[C@]43O)C2)C(O)C(O)[C@H]1O` (stereo partly drawn) [Compound 1.2, digitoxigenin α-L-rhamnopyranoside], the Kd on α1β1 Na+/K+ ATPase amounted to 27 nM; at α2β1 Na+/K+ ATPase it was 23 nM; on α3β1 Na+/K+ ATPase, 19 nM. Also, in the data set with NCI-H460 cells [1] (setting [4]), the half-maximal inhibitory concentration (IC50) turned out to be 47 nM. The GI50 in the data set on NCI-H460 cells [2] (NCI-H460, 24 h) was 2 nM. The entries for the “SI (selectivity index, CC50/EC50)” value in the data set with HCMV and in the data set on HCMV (listed as α-L-Rhamnose (1.2)) were 173 and 139.25, respectively. This compound also returned an EC50 in the data set on HCMV (Human betaherpesvirus 5) of 4.77 ± 0.23 nM. The compound further had a cytotoxic concentration (CC50) in data set [3] of 664 ± 185 nM.
As for `CC1OC(OC2C(C)OC(OC3C(C)OC(OC4CCC5(C)C(CCC6C5CCC5(C)C(C7=CC(=O)OC7)CCC65O)C4)C(O)C3O)C(O)C2O)C(O)C(O)C1O` (centres unmarked) [Compound 1.4], the Kd on α1β1 Na+/K+ ATPase came out at 393 nM; on α2β1 Na+/K+ ATPase, 164 nM; at α3β1 Na+/K+ ATPase, 345 nM. In the data set with NCI-H460 cells [1] (setting [4]), the IC50 was determined as 1350 nM.
As to `CC1O[C@@H](O[C@H]2CCC3(C)C(CC[C@@H]4C3CCC3(C)[C@@H](C5=CC(=O)OC5)CC[C@]43O)C2)CC[C@H]1O` (stereo partly drawn) [Compound 1.5, digitoxigenin α-L-amecitopyranoside], the Kd at α1β1 Na+/K+ ATPase stood at 56 nM; on α2β1 Na+/K+ ATPase it was 38 nM; on α3β1 Na+/K+ ATPase, 26 nM. In the data set on NCI-H460 cells [1] (setting [4]), the 50% inhibitory concentration (IC50) amounted to 48 nM. Besides, the 50% growth inhibitory concentration (GI50) in the data set with NCI-H460 cells [2] (NCI-H460, 24 h) was determined as 3 nM. Further, the “SI (selectivity index, CC50/EC50)” value with HCMV is 139; in the data set with HCMV (listed as α-L-Amicetose (1.5)), 173.61. In the data set with HCMV (Human betaherpesvirus 5), the 50% effective concentration (EC50) is 3.77 ± 0.08 nM. In data set [3], this compound came in with a CC50 of 655 ± 177 nM.
Regarding `CC1OC(OC2CCC(OC3CCC4(C)C(CCC5C4CCC4(C)C(C6=CC(=O)OC6)CCC54O)C3)OC2C)CCC1O` (centres unmarked) [Compound 1.6], the Kd on α1β1 Na+/K+ ATPase is 223 nM; on α2β1 Na+/K+ ATPase, 156 nM; on α3β1 Na+/K+ ATPase, 186 nM. For the same compound, in the data set on NCI-H460 cells [1] (setting [4]), the 50% inhibitory concentration (IC50) stood at 510 nM.
For the compound `CC1OC(OC2CCC(OC3CCC(OC4CCC5(C)C(CCC6C5CCC5(C)C(C7=CC(=O)OC7)CCC65O)C4)OC3C)OC2C)CCC1O` (centres unmarked) [Compound 1.7], the results for the Kd at α1β1 Na+/K+ ATPase, on α2β1 Na+/K+ ATPase and on α3β1 Na+/K+ ATPase were 670 nM, 149 nM and 736 nM, respectively. Besides, the IC50 with NCI-H460 cells [1] (setting [4]) was 3960 nM.
For the compound `C[C@H]1O[C@@H](O[C@H]2[C@@H](O)C[C@H](O[C@H]3[C@@H](O)C[C@H](O[C@H]4CC[C@@]5(C)[C@H](CC[C@@H]6[C@@H]5CC[C@]5(C)[C@@H](C7=CC(=O)OC7)CC[C@]65O)C4)O[C@@H]3C)O[C@@H]2C)C[C@H](O)[C@@H]1O` [Digitoxin, reference compound], the Kd at α1β1 Na+/K+ ATPase (first KD column of Table 4, read-out: Na+/K+ATPase inhibition KD, α1β1) turned out to be 80 nM; on α2β1 Na+/K+ ATPase (second KD column of Table 4, read-out: Na+/K+ATPase inhibition KD, α2β1), 38 nM; on α3β1 Na+/K+ ATPase (third KD column of Table 4, head printed α1β1 a second time, read-out: Na+/K+ATPase inhibition KD, α1β1) it was 36 nM. The half-inhibitory concentration (IC50) with NCI-H460 cells [1] (NCI-H460, Table 4, 48 h treatment, unit inferred, read-out: Anticancer MTT IC50) amounted to 357 nM; in the data set with NCI-H460 cells [1] (NCI-H460, Table 5, H460 cells, compounds of Table 2, read-out: IC50), 157 nM. Moreover, the GI50 in the data set on NCI-H460 cells [2] (NCI-H460, Table 4, 24 h treatment, unit inferred) is 11 nM. The “SI (selectivity index, CC50/EC50)” value in the data set with HCMV was 120.46; in the data set on HCMV (listed as digitoxin) it was 120. The same compound registered an EC50 in the data set on HCMV (Human betaherpesvirus 5) of 23.3 ± 0.67 nM. In data set [3], half-maximal cytotoxicity (CC50) was put at 2810 ± 668 nM.
Turning to α-D-Amicetose, the concentration for a half-maximal effect (EC50) in the data set on HCMV (setting [5]) is 37.5 ± 0.52 nM. Moreover, it took 1110 ± 273 nM to reach half-maximal cytotoxicity in the data set with noninfected HFFs (CC50).
For α-D-Rhamnose, in the data set on HCMV (setting [5]), the half-maximal effective concentration (EC50) was 26.6 ± 0.88 nM. This compound gave a CC50 with noninfected HFFs of 2270 ± 551 nM.

The record behind these values is patent US20160176914A1, “GLYCOSYLATED CARDIOTONIC STEROIDS” (priority 2013, published 2016).
